Assay results: patent US8889688B2, “Piperazines as antimalarial agents” (Actelion Pharmaceuticals Ltd., priority 2011, dated 2014)
Read-outs that look alike come from different tables or passages of the source.

Tests used:
[1] = system: erythrocytic stages of P. falciparum NF54; experiment: Plasmodium falciparum in vitro assay, [3H] hypoxanthine incorporation; type: cell-based; conditions: Plasmodium falciparum, Erythrocyte, 72 h, P. falciparum NF54 in human red blood cells, 48 h + 24 h incubation
Procedure: In Vitro Antimalarial Activity: Plasmodium falciparum In Vitro Assay In vitro activity against erythrocytic stages of P. falciparum in human red blood cells is determined using a [^3H] hypoxanthine incorporation assay. […] Thereafter, the parasite cultures incubated in screening medium containing washed human red blood cells at 2.5% hematocrit (0.3% parasitemia) are added to the serially diluted compounds and incubated in a humidifying atmosphere at 37° C., 4% CO2, 3% O2, and 93% N2. After 48 h, [^3H] hypoxanthine (0.5 μCi) is added to each well of a plate. The plates are incubated for a further 24 h under the same conditions then harvested with a Betaplate cell harvester (Wallac) and washed with distilled water. The dried filters are inserted into a plastic foil with 10 mL of scintillation fluid, and counted in a Betaplate liquid scintillation counter. IC50 values are calculated from sigmoidal inhibition curves using Microsoft Excel.

[2] = system: P. berghei strain GFP-ANKA; experiment: In vivo antimalarial efficacy study in infected NMRI mice; conditions: Plasmodium berghei; female NMRI mice infected with P. berghei GFP-ANKA; single oral dose of 100 mg/kg 24 h after infection; parasitemia 48 h after drug treatment (day 3); read-out: Activity (inhibition of parasitemia) expressed as a percent relative to the control group
Procedure: In Vivo Antimalarial Efficacy Studies
In vivo antimalarial activity is assessed for groups of three female NMRI mice (20-22 g) intravenously infected on day 0 with P. berghei strain GFP-ANKA (0.2 mL heparinized saline suspension containing 2×10^7 parasitized erythrocytes). In control mice, parasitemia typically rises to approximately 40% by day 3 after infection. Compounds are formulated in Tween 80/ethanol (7%/3%) usually at concentrations of 10 mg/mL. Compounds are administered in a volume of 10 mL/kg orally as single doses (1×100 mg/kg, 24 h after infection). 48 h after drug treatment (day 3 post-infection), 1 μl tail blood is taken, resuspended in 1 mL PBS buffer and parasitemia determined with a FACScan (Becton Dickinson) by counting 100′000 red blood cells. Activity is calculated as the difference between the mean value of the control group and treated groups expressed as a percent relative to the control group.

[3] = screening medium with Albumax (5 g/L), read-out: IC50 on NF54 (with Albumax)
[4] = screening medium with human serum (50% final concentration), read-out: IC50 on NF54 (with 50% Serum)

SMILES | IC50 [1, 3] | IC50 [1, 4] | inhibition in vivo at 100 mg/kg [2]
CCc1ccc(C=CC(=O)N(Cc2ccc(N3CCN(C(C)=O)CC3)cc2)[C@@H](Cc2ccccc2)C(=O)N2CCN(Cc3ccc(Cl)cc3)CC2)cc1 [Example 40, (S)-N-[4-(4-Acetyl-piperazin-1-yl)-benzyl]-N-{1-benzyl-2-[4-(4-chloro-benzyl)-piperazin-1-yl]-2-oxo-ethyl}-3-(4-ethyl-phenyl)-acrylamide] | 1.7 nM | 10.5 nM | 93.6%
CC(=O)N1CCN(c2ccc(CN(C(=O)C=Cc3ccc(OC(C)C)cc3)[C@@H](Cc3ccccc3)C(=O)N3CCN(Cc4ccc(S(C)(=O)=O)cc4)CC3)cc2)CC1 [Example 44, (S)-N-[4-(4-Acetyl-piperazin-1-yl)-benzyl]-N-{1-benzyl-2-[4-(4-(methylsulfonyl)-benzyl)-piperazin-1-yl]-2-oxo-ethyl}-3-(4-isopropoxyphenyl)-acrylamide] | 0.4 nM | 2.8 nM | 99%
CCCOc1ccc(C=CC(=O)N(Cc2ccc(N3CCN(C(C)=O)CC3)cc2)[C@@H](Cc2ccccc2)C(=O)N2CCN(Cc3ccccc3)CC2)cc1 [Example 8, (S)-N-[4-(4-Acetyl-piperazin-1-yl)-benzyl]-N-[1-benzyl-2-(4-benzyl-piperazin-1-yl)-2-oxo-ethyl]-3-(4-propoxy-phenyl)-acrylamide] | 1.8 nM | 13.4 nM | 99.4%
CC(=O)N1CCN(c2ccc(CN(C(=O)C=Cc3ccc(C(C)(C)C)cc3)[C@@H](Cc3ccccc3)C(=O)N3CCN(Cc4ccc(Cl)cc4)CC3)cc2)CC1 [Example 43, (S)-N-[4-(4-Acetyl-piperazin-1-yl)-benzyl]-N-{1-benzyl-2-[4-(4-chloro-benzyl)-piperazin-1-yl]-2-oxo-ethyl}-3-(4-tert-butyl-phenyl)-acrylamide] | 1.1 nM | 13.5 nM | 98.7%
CC(=O)N1CCN(c2ccc(CN(C(=O)C=Cc3ccc(C(C)(C)C)cc3)[C@@H](Cc3ccccc3)C(=O)N3CCN(Cc4ccc(N(C)C)cc4)CC3)cc2)CC1 [Example 22, (S)-N-[4-(4-Acetyl-piperazin-1-yl)-benzyl]-N-{1-benzyl-2-[4-(4-dimethylamino-benzyl)-piperazin-1-yl]-2-oxo-ethyl}-3-(4-tert-butyl-phenyl)-acrylamide] | 1.3 nM | 10.9 nM | 99.3%
CC(=O)N1CCN(c2ccc(CN(C(=O)C=Cc3ccc(C(C)C)cc3)[C@@H](Cc3ccccc3)C(=O)N3CCN(Cc4ccccc4)CC3)cc2)CC1 [Example 10, (S)-N-[4-(4-Acetyl-piperazin-1-yl)-benzyl]-N-[1-benzyl-2-(4-benzyl-piperazin-1-yl)-2-oxo-ethyl]-3-(4-isopropyl-phenyl)-acrylamide] | 3 nM | 8.6 nM | 96%
CC(=O)N1CCN(c2ccc(CN(C(=O)C=Cc3ccc(C(C)C)cc3)[C@@H](Cc3ccccc3)C(=O)N3CCN(Cc4ccc(N(C)C)cc4)CC3)cc2)CC1 [Example 23, (S)-N-[4-(4-Acetyl-piperazin-1-yl)-benzyl]-N-{1-benzyl-2-[4-(4-dimethylamino-benzyl)-piperazin-1-yl]-2-oxo-ethyl}-3-(4-isopropyl-phenyl)-acrylamide] | 1.3 nM | 9.5 nM | 99.1%
CC(=O)N1CCN(c2ccc(CN(C(=O)C=Cc3ccc(S(C)(=O)=O)cc3)[C@@H](Cc3ccccc3)C(=O)N3CCN(Cc4ccc(N(C)C)cc4)CC3)cc2)CC1 [Example 16, (S)-N-[4-(4-Acetyl-piperazin-1-yl)-benzyl]-N-{1-benzyl-2-[4-(4-dimethylamino-benzyl)-piperazin-1-yl]-2-oxo-ethyl}-3-(4-methanesulfonyl-phenyl)-acrylamide] | 5.5 nM | 13.3 nM | 85.9%
CCOc1ccc(C=CC(=O)N(Cc2ccc(N3CCN(C(C)=O)CC3)cc2)[C@@H](Cc2ccccc2)C(=O)N2CCN(Cc3ccc(N(C)CCO)cc3)CC2)cn1 [Example 53, (S)-N-[4-(4-Acetyl-piperazin-1-yl)-benzyl]-N-[1-benzyl-2-(4-{4-[(2-hydroxy-ethyl)-methyl-amino]-benzyl}-piperazin-1-yl)-2-oxo-ethyl]-3-(6-ethoxy-pyridin-3-yl)-acrylamide] | 4.3 nM | 12.4 nM | 52.3%
COC(=O)c1ccc(C=CC(=O)N(Cc2ccc(N3CCN(C(C)=O)CC3)cc2)[C@@H](Cc2ccccc2)C(=O)N2CCN(Cc3ccccc3)CC2)cc1 [Example 5, (S)-4-(2-{[4-(4-Acetyl-piperazin-1-yl)-benzyl]-[1-benzyl-2-(4-benzyl-piperazin-1-yl)-2-oxo-ethyl]-carbamoyl}-vinyl)-benzoic acid methyl ester] | 3.9 nM | 12 nM | < 40%
CCCOc1ccc(C=CC(=O)N(Cc2ccc(N3CCN(C(C)=O)CC3)cc2)[C@@H](Cc2ccccc2)C(=O)N2CCN(Cc3ccc(S(=O)(=O)CC)cc3)CC2)cc1 [Example 48, (S)-N-[4-(4-Acetyl-piperazin-1-yl)-benzyl]-N-{1-benzyl-2-[4-(4-(ethylsulfonyl)-benzyl)-piperazin-1-yl]-2-oxo-ethyl}-3-(4-propoxyphenyl)-acrylamide] | 0.5 nM | 1.6 nM | 99%
CC(=O)N1CCN(c2ccc(CN(C(=O)C=Cc3ccc(C(C)(C)C)cc3)[C@@H](Cc3ccccc3)C(=O)N3CCN(Cc4ccc(S(C)(=O)=O)cc4)CC3)cc2)CC1 [Example 45, (S)-N-[4-(4-Acetyl-piperazin-1-yl)-benzyl]-N-{1-benzyl-2-[4-(4-(methylsulfonyl)-benzyl)-piperazin-1-yl]-2-oxo-ethyl}-3-(4-tert-butyl-phenyl)-acrylamide] | 0.2 nM | 1.8 nM | 99.4%
CC(=O)N1CCN(c2ccc(CN(C(=O)C=Cc3ccc(OC(F)F)cc3)[C@@H](Cc3ccccc3)C(=O)N3CCN(Cc4ccc(N(C)C)cc4)CC3)cc2)CC1 [Example 21, (S)-N-[4-(4-Acetyl-piperazin-1-yl)-benzyl]-N-{1-benzyl-2-[4-(4-dimethylamino-benzyl)-piperazin-1-yl]-2-oxo-ethyl}-3-(4-difluoromethoxy-phenyl)-acrylamide] | 1.9 nM | 7 nM | 98.8%
CC(=O)Nc1ccc(C=CC(=O)N(Cc2ccc(N3CCN(C(C)=O)CC3)cc2)[C@@H](Cc2ccccc2)C(=O)N2CCN(Cc3ccccc3)CC2)cc1 [Example 7, (S)-3-(4-Acetylamino-phenyl)-N-[4-(4-acetyl-piperazin-1-yl)benzyl]-N-[1-benzyl-2-(4-benzyl-piperazin-1-yl)-2-oxo-ethyl]-acrylamide] | 3.1 nM | 40 nM | 44.7%
CCOc1ccc(C=CC(=O)N(Cc2ccc(N3CCN(C(C)=O)CC3)cc2)[C@@H](Cc2ccccc2)C(=O)N2CCN(Cc3ccc(Cl)cc3)CC2)cc1 [Example 35, (S)-N-[4-(4-Acetyl-piperazin-1-yl)-benzyl]-N-{1-benzyl-2-[4-(4-chloro-benzyl)-piperazin-1-yl]-2-oxo-ethyl}-3-(4-ethoxy-phenyl)-acrylamide] | 2.9 nM | 9 nM | 98.7%
CC(=O)N1CCN(c2ccc(CN(C(=O)C=Cc3ccc(C(C)(C)C)cc3)[C@@H](Cc3ccccc3)C(=O)N3CCN(Cc4ccccc4)CC3)cc2)CC1 [Example 3, (S)-N-[4-(4-Acetyl-piperazin-1-yl)-benzyl]-N-[1-benzyl-2-(4-benzyl-piperazin-1-yl)-2-oxo-ethyl]-3-(4-tert-butyl-phenyl)-acrylamide] | 1.9 nM | 8.5 nM | 98.7%
COc1ccc(C=CC(=O)N(Cc2ccc(N3CCN(C(C)=O)CC3)cc2)[C@@H](Cc2ccccc2)C(=O)N2CCN(Cc3ccc(N(C)CCO)cc3)CC2)cn1 [Example 52, (S)-N-[4-(4-Acetyl-piperazin-1-yl)-benzyl]-N-[1-benzyl-2-(4-{4-[(2-hydroxy-ethyl)-methyl-amino]-benzyl}-piperazin-1-yl)-2-oxo-ethyl]-3-(6-methoxy-pyridin-3-yl)-acrylamide] | 10 nM | 33 nM | < 40%
CCc1ccc(C=CC(=O)N(Cc2ccc(N3CCN(C(C)=O)CC3)cc2)[C@@H](Cc2ccccc2)C(=O)N2CCN(Cc3ccccc3)CC2)cc1 [Example 2, (S)-N-[4-(4-Acetyl-piperazin-1-yl)-benzyl]-N-[1-benzyl-2-(4-benzyl-piperazin-1-yl)-2-oxo-ethyl]-3-(4-ethyl-phenyl)-acrylamide] | 2 nM | 10 nM | 94.1%
